Assay results: patent US20160300038A1, “METHODS OF N[…] DRUG CONCENTRATIONS IN URINE USING PATIENT […] DATA AND TESTING FOR POTENTIAL NON-[…] A CHRONIC DRUG TREATMENT REGIMEN” (Ameritox, Ltd., priority 2015, published 2016)

Assay: Urine drug testing (UDT): drug concentration of the primary metabolite (parent drug) in patient urine, e.g. LC/MSMS
Description: Non-limiting examples for determining the amount of a drug in fluid of a subject include fluorescence polarization immunoassay (“FPIA,” Abbott Diagnostics), mass spectrometry (MS), gas chromatography-mass spectrometry (GC-MS-MS), liquid chromatography-mass spectrometry (LC-MS-MS), liquid chromatography—exact mass mass spectrometry (LC/QTOF) and the like. […] In one embodiment, a raw level, amount, or concentration of a drug in urine of a subject is measured and reported as a ratio, percent, or in relationship to the amount of fluid. The amount of fluid may be expressed as a unit volume, for example, in L, mL, μL, pL, ounce, etc. In one embodiment, the raw amount of a drug in Urine of a subject may be expressed as an absolute level or value, for example, in g, mg, μg, ng, pg, etc.
Then urine from the subject is tested. […] These values are within normal ranges so the data were processed.
Of the patients considered in this sample 70% were females and 30% were males.

## COc1ccc2c3c1O[C@H]1C(=O)CC[C@H]4[C@@H](C2)N(C)CC[C@]314 [hydrocodone]
Hydrocodone model population, approximately 100,000 patient results, average daily dosage 30 mg
  average urine drug concentration: 1784 ng/m L

## Cc1nnc2n1-c1ccc(Cl)cc1C(c1ccccc1)=NC2 [alprazolam]
Example 7, fifty randomly selected alprazolam patients, average daily dosage 2 mg
  average urine drug concentration: 155 ng/m L
Alprazolam model population, approximately 280,000 patient results, average daily dosage 3 mg
  average urine drug concentration: 375 ng/mL

## O=C1Nc2ccc(Cl)cc2C(c2ccccc2)=NC1O (stereo not drawn) [oxazepam]
Example 8, fifty patients prescribed diazepam or temazepam (oxazepam as metabolite), average daily dosage 17 mg
  average urine drug concentration: 1096 ng/m L
Oxazepam model population, approximately 207,000 patient results, prescribed diazepam and temazepam, average daily dosage 23 mg
  average oxazepam urine drug concentration: 1819 ng/m L

## COc1ccc2c3c1O[C@H]1C(=O)CC[C@@]4(O)[C@@H](C2)N(C)CC[C@]314 [oxycodone]
Oxycodone model population, approximately 47,000 patient results, average daily dosage 36 mg
  average urine drug concentration: 2120 ng/m L
